This is an account of results in ChEMBL document CHEMBL5512670 (J Med Chem, 2024).

The nature of data set [1]: AUC (0 to 24 hrs) in C57BL/6 mouse at 50 mg/kg,po administrated upto 24 hrs by LC-MS/MS analysis. Conditions: in vivo. It is filed as ADME, organism-based.
Data set [2] in a line: Clearance in Wistar rat blood at 1 mg/kg,po administration. It is filed as ADME, organism-based.
Data set [3] is described as follows: Oral bioavailability in Wistar rat plasma at 50 mg/kg administration. The class given is ADME, organism-based.
Data set [4] in a line: AUC (0 to 24 hrs) in C57BL/6 mouse infected with Clostridioides difficile CD1264 at 10 mg/kg,po administrated upto 24 hrs by LC-MS/MS analysis. It is filed as ADME, organism-based. Conditions: in vivo.
Data set [5] can be described thus: Cmax in C57BL/6 mouse at 50 mg/kg,po administrated upto 24 hrs by LC-MS/MS analysis. The class given is ADME, organism-based. Conditions: in vivo.
Data set [6] is described as follows: Cmax in C57BL/6 mouse at 10 mg/kg,po administrated upto 24 hrs by LC-MS/MS analysis. The class given is ADME, organism-based. Conditions: in vivo.
A short description of data set [7]: Half life in Wistar rat at 1 mg/kg,po administration. It is filed as ADME, organism-based. To be noted: in vivo.
Data set [8] can be described thus: Lipophilicity, logD of the compound at pH 7.4. It is filed as physicochemical. To be noted: buffer.
Data set [9] in a line: Drug metabolism in human liver microsomes assessed as metabolite formation. It is filed as ADME, Microsome. A general note: Liver microsomes are a subcellular fraction often used to study metabolism.
Data set [10] can be described thus: Volume of distribution at steady state in Wistar rat at 1 mg/kg,po administration. The class given is ADME, organism-based. To be noted: in vivo.
A short description of data set [11]: AUC (0 to 24 hrs) in C57BL/6 mouse at 10 mg/kg,po administrated upto 24 hrs by LC-MS/MS analysis. Conditions: in vivo. It is filed as ADME, organism-based.
Data set [12] is described as follows: Cmax in C57BL/6 mouse infected with Clostridioides difficile CD1264 at 50 mg/kg,po administrated upto 24 hrs by LC-MS/MS analysis. It is filed as ADME, organism-based. To be noted: in vivo.
A short description of data set [13]: Drug concentration in Wistar rat plasma at 50 mg/kg,po administration. To be noted: in vivo. The class given is ADME, organism-based.
Data set [14] is described as follows: AUC (0 to infinity) in Wistar rat at 1 mg/kg,po administration. The class given is ADME, organism-based. To be noted: in vivo.
Data set [15] in a line: AUC (0 to 24 hrs) in C57BL/6 mouse infected with Clostridioides difficile CD1264 at 50 mg/kg,po administrated upto 24 hrs by LC-MS/MS analysis. It is filed as ADME, organism-based. To be noted: in vivo.
Data set [16] is described as follows: Cmax in C57BL/6 mouse infected with Clostridioides difficile CD1264 at 10 mg/kg,po administrated upto 24 hrs by LC-MS/MS analysis. The class given is ADME, organism-based. Conditions: in vivo.
The nature of data set [17]: Clearance in Wistar rat plasma at 1 mg/kg,po administration. It is filed as ADME, organism-based.
Data set [18] is described as follows: Dissociation constant, pKa of the compound. It is filed as physicochemical.
A short description of data set [19]: Drug metabolism in human Hepatocyte assessed as metabolite formation. It is filed as ADME, cell-based. Conditions: hepatocytes.

Regarding `O=C(O)c1cn(C2CC2)c2cc(N3CCC(O)(COc4ccc(N5C[C@H](CO)OC5=O)cc4F)CC3)c(F)cc2c1=O` [CADAZOLID], the area under the curve AUC(0-t) at 24 h in data set [1] is 78 ng·h/mL; in data set [4], 27 ng·h/mL; in data set [11], 9 ng·h/mL; in data set [15], 147 ng·h/mL. The results for the CL/F in data set [2] and in data set [17] were 96 mL/min/kg and 65 mL/min/kg, respectively. Further, the bioavailability in data set [3] worked out at 0%. For the same molecule, the Cmax came out at 6 ng/mL in [5], 3 ng/mL in data set [6], 10 ng/mL in data set [12] and 12 ng/mL in data set [16]. The same molecule showed a half-life in data set [7] of 36 min. In addition, the logD in data set [8] turned out to be 1.2. Moreover, the Drug metabolism entry in data set [9] and in [19] was “Metabolite_Notdetected” throughout. The molecule also gave a Vdss in [10] of 2 L/kg. In addition, in data set [13], the Cp was found to be 1 ng/mL. In data set [14], the AUC(0-inf) was 255 ng·h/mL. In data set [18], this molecule yielded a pKa of 6.

For orientation: AUC(0-t) means the area under the concentration-time curve up to a stated or last time point. One may read the CL/F as the apparent clearance, not corrected for the fraction that reaches the circulation. For orientation: bioavailability means dose-corrected exposure relative to a reference, in per cent. A low value points to little systemic uptake. For orientation: Cmax means the peak of the concentration-time curve. As a reminder, the half-life is how long it takes for the measured level to halve. Low readings indicate fast loss, high ones slow loss. In general, logD refers to lipophilicity at a set pH, counting ionised and neutral species. Low values mean a more hydrophilic compound, high ones a more lipophilic compound. In general, AUC(0-inf) refers to total exposure, with the tail of the curve extrapolated. Lower therefore signals less exposure. Broadly, the pKa is the negative logarithm of the acid dissociation constant.
